{"source": "patent US20150275180A1", "about": "“Chemical preconditioning process for cell material to obtain chemical epigenetic reprogramming and pluripotency expression” (priority 2012, published 2015)", "key": {"[1]": {"system": "human dermal skin fibroblasts", "test": "Comparative analysis of HBR, its grafting moieties alone or as a mixture, on stemness gene expression", "format": "cell-based", "conditions": "12 hours, 2.0 mg/ml HBR, 1.5 mg/ml HA, 2.5 mM BU, 10^-8M RA, hydrolyzed HBR 2 mg/ml", "description": "FIG. 6 is the comparative analysis of the effect of HBR, or its grafting moieties alone or as a mixture, on the expression of sternness-related genes in human dermal skin fibroblasts: cells were incubated for 12 hours in the absence or presence of 2.0 mg/ml HBR, 1.5 mg/ml HA, 2.5 mM BU, or 10^-8M RA, or exposed to a hydrolyzed (HY) HBR solution (2 mg/ml), obtained from a 2-h basic HBR hydrolysis followed by pH neutralization. This procedure affords a complete release of each single HBR grafted moiety, leading to the formation of a mixture of HA, BU, and RA, with each molecule in the concentration range reported above for the experiments based on cell incubation in the presence of each molecule alone. The amount of each transcript from exposed or unexposed cells was normalized to HPRT1, and the mRNA expression of exposed cells was plotted at each time point as fold change relative to the expression in control unexposed cells, defined as 1 (mean±S.E.; n=6).\nThis procedure affords a complete release of each single HBR grafted moiety, leading to the formation of a mixture of HA, BU, and RA, with each molecule in the concentration range reported above for the experiments based on (stem) cell incubation in the presence of each molecule alone."}, "[2]": {"system": "human dermal skin fibroblasts", "conditions": "2 mg/ml HBR, 7-day treatment", "source_text": "(§1) A, GATA4; B, Nkx2.5; C, neurogenin1; D, VEGF; E, MyoD. The amount of each transcript from exposed or unexposed cells was normalized to HPRT1, and the mRNA expression of exposed cells was plotted at each time point as fold change relative to the expression in control unexposed cells, defined as 1 (mean±S.E.; n=6);"}, "[3]": {"system": "Lipogems-derived hASCs", "conditions": "2 mg/ml HBR, 7-day treatment", "source_text": "as §1"}, "[4]": {"system": "human dermal skin fibroblasts", "conditions": "HBR 2 mg/ml for 14 days, confocal microscopy", "source_text": "Scale bars are 40 μm. Representative of six separate experiments;"}, "[5]": {"system": "human skin fibroblasts", "conditions": "14 days, 2 mg/ml HBR, mean±S.E., n=6"}, "[6]": {"system": "adult rat cardiac ventricular cardiomyocytes", "conditions": "in vitro HBR treatment; cited from earlier work"}, "[7]": {"system": "human dermal skin fibroblasts", "conditions": "2 mg/ml HBR", "source_text": "(§2) A, Sox2; B, Oct4; C, Nanog. The amount of each transcript from exposed or unexposed cells was normalized to HPRT1, and the mRNA expression of exposed cells was plotted at each time point as fold change relative to the expression in control unexposed cells, defined as 1 (mean±S.E.; n=6);"}, "[8]": {"system": "Lipogems-derived hASCs", "conditions": "2 mg/ml HBR", "source_text": "as §2"}, "[9]": {"system": "Lipogems-derived hASCs", "conditions": "HBR for 14 days, confocal microscopy"}, "[10]": {"system": "Lipogems-derived hASCs", "conditions": "14 days, 2 mg/ml HBR, mean±S.E., n=6"}, "[11]": {"system": "Stro-1 positive rat mesenchymal stem cells", "conditions": "in vitro HBR treatment; cited from earlier work"}, "[12]": {"conditions": "later times of exposure (7-day treatment)"}, "[13]": {"conditions": "within the first 12-24 hours of a 7-day treatment"}}, "note": "Read-outs that look alike come from different tables or passages of the source."}
{"compound": "CCCC(=O)O", "note": "[BU, butyric acid]", "values": [{"measurement": "transcription of the stemness/pluripotency genes Sox2, Nanog and Oct4 versus unexposed control", "setting": "[1]", "value": "significantly increased"}]}
{"compound": "hyaluronic acid [HA]", "values": [{"measurement": "transcription of the stemness/pluripotency genes Sox2, Nanog and Oct4 versus unexposed control", "setting": "[1]", "value": "significantly increased"}]}
{"compound": "hyaluronic acid esterified with butyric and retinoic acids [HBR]", "values": [{"measurement": "gene expression of GATA4, Nkx2.5, VEGF, neurogenin-1 and myoD", "setting": "[2]", "value": "significantly enhanced"}, {"measurement": "gene expression of GATA4, Nkx2.5, VEGF, neurogenin-1 and myoD", "setting": "[3]", "value": "significantly enhanced"}, {"measurement": "expression of tissue restricted marker proteins (α-myosin heavy chain, α-sarcomeric actinin, β-3 tubulin, vWF, myoD)", "setting": "[4]", "value": "appearance of cells expressing"}, {"measurement": "cells expressing vWF (endothelial marker)", "setting": "[5]", "value": "18.0±2.6"}, {"measurement": "cells expressing β-3-tubulin (neuronal determination marker)", "setting": "[5]", "value": "12.30±2.7", "unit": "%"}, {"measurement": "percentage of myoD (skeletal muscle)-positive elements", "setting": "[5]", "value": "14.00±3.00", "unit": "%"}, {"measurement": "percentage of α-sarcomeric actinin (myocardial)-positive elements", "setting": "[5]", "value": "28.00±3.40", "unit": "%"}, {"measurement": "histone H4 acetylation compared with untreated cells", "setting": "[6]", "value": "significant increase"}, {"measurement": "transcription of the stemness/pluripotency genes Sox2, Nanog and Oct4 versus unexposed control", "setting": "[1]", "value": "significantly higher levels"}, {"measurement": "transcription of stemness-related genes Nanog, Sox2, Oct4", "setting": "[7]; [12]", "value": "down-regulation"}, {"measurement": "transcription of stemness-related genes Nanog, Sox2, Oct4", "setting": "[7]; [13]", "value": "significantly enhanced"}, {"measurement": "transcription of stemness-related genes Nanog, Sox2, Oct4", "setting": "[8]; [12]", "value": "down-regulation"}, {"measurement": "transcription of stemness-related genes Nanog, Sox2, Oct4", "setting": "[8]; [13]", "value": "significantly enhanced"}, {"measurement": "expression of tissue restricted marker proteins (α-myosin heavy chain, α-sarcomeric actinin, β-3 tubulin, vWF, myoD)", "setting": "[9]", "value": "appearance of cells expressing"}, {"measurement": "cells expressing α-sarcomeric actinin", "setting": "[10]", "value": "31.0±2.8", "unit": "%"}, {"measurement": "myoD positive cells", "setting": "[10]", "value": "12.4±2.0", "unit": "%"}, {"measurement": "vWF positive cells", "setting": "[10]", "value": "22.2±3.0", "unit": "%"}, {"measurement": "β-3-tubulin expressing cells", "setting": "[10]", "value": "14.0±2.1", "unit": "%"}, {"measurement": "histone H4 acetylation compared with untreated cells", "setting": "[11]", "value": "significant increase"}]}
